Data reported in publication PMC8468421, “Synthesis and Biological Evaluation of 1,2,3-Triazole Tethered Thymol-1,3,4-Oxadiazole Derivatives as Anticancer and Antimicrobial Agents” (Pharmaceuticals, 2021).

How the values were obtained:
[1] = system: MCF-7; assay: Antiproliferative activity, MTT assay, MCF-7; settings: for IC50: Homo sapiens, MCF7, read-out: Cytotoxicity IC50 MCF-7; for times active relative to 5-florouracil, MCF-7: (IC50 18.74 μM)
Text: (§1) The compounds were screened on breast (MCF-7), liver (HepG2), and colorectal (HCT-116) cancer cells, obtained from American Type culture Collection (ATCC); 0.1% of DMSO was used as a vehicle control.

[2] = system: HCT-116; assay: Antiproliferative activity, MTT assay, HCT-116; settings: Homo sapiens, HCT-116, read-out: Cytotoxicity IC50 HCT-116
Text: as §1

[3] = system: HepG2; assay: Antiproliferative activity, MTT assay, HepG2; settings: for IC50: Homo sapiens, HepG2, read-out: Cytotoxicity IC50 HepG2
Text: as §1

[4] = system: E. coli (ATCC 31218); assay: Antimicrobial activity, agar well zone of inhibition, E. coli; type: cell-based, Escherichia coli; settings: 10 μL of 10 mg/mL in 50% DMSO per well, overnight 37 °C, --- = no zone of inhibition; for zone of inhibition at 10000 µg/mL: Escherichia coli, ATCC31218
Description: (§2) The antimicrobial activity of the final compounds was performed by reported methods.The bacterial strains, E. coli (Gram negative), S. aureus (Gram positive), and fungi, Candida albicans, were used for the study. Luria broth Agar and Sabouraud Dextrose Agar were prepared into a petri dish using 25 mL of autoclaved media; 100 μL of diluted broth of freshly prepared E. coli, S. aureus, and C. albicans were spread on Luria Broth Agar and Sabouraud Agar plates, respectively. Then, 7 wells of 50 μL capacity were punched on each plate. Samples 5–18 (10 μL of 10 mg/mL standard prepared in 50% DMSO) were placed in each plate’s well in different plate sets. All the plates were incubated for overnight at 37 °C in an incubator shaker. The inhibition zone was calculated in triplicate.

[5] = system: S. aureus (ATCC 29213); assay: Antimicrobial activity, agar well zone of inhibition, S. aureus; type: cell-based, Staphylococcus aureus; settings: 10 μL of 10 mg/mL in 50% DMSO per well, overnight 37 °C, --- = no zone of inhibition; for zone of inhibition at 10000 µg/mL: Staphylococcus aureus, ATCC29213
Description: as §2

[6] = biological target: Thymidylate synthase (TS) (Homo sapiens, UniProt P04818); assay: Thymidylate synthase (TS) enzymatic assay
[7] = system: C. albicans (ATCC 10231); assay: Antifungal activity, agar well zone of inhibition, C. albicans; type: cell-based, Candida albicans; settings: 10 μL of 10 mg/mL in 50% DMSO per well, overnight 37 °C, --- = no zone of inhibition; for zone of inhibition at 10000 µg/mL: Candida albicans, ATCC10231
Description: as §2

Thymidylate synthase (TS), sequence (P04818 whole entry): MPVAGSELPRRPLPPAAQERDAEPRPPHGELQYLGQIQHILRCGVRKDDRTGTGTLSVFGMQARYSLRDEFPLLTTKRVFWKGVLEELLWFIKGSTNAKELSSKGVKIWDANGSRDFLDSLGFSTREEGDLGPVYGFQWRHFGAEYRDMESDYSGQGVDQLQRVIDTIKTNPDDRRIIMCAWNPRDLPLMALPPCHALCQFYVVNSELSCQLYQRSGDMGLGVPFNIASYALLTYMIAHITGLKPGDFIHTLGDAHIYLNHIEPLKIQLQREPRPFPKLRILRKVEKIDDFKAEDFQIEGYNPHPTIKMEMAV

| Structure (SMILES) | IC50 [1] [µM] | IC50 [2] [µM] | IC50 [3] [µM] | zone of inhibition E. coli [4] [mm] | zone of inhibition at 10000 µg/mL [4] [mm] | zone of inhibition S. aureus [5] [mm] | zone of inhibition at 10000 µg/mL [5] [mm] | melting point [°C] | IC50 [6] [µM] | times active relative to 5-florouracil, MCF-7 [1] [times] | fold active relative to 5-FU, HepG2 [3] [fold] | zone of inhibition C. albicans [7] [mm] | zone of inhibition at 10000 µg/mL [7] [mm] |
| --- | --- | --- | --- | --- | --- | --- | --- | --- | --- | --- | --- | --- | --- |
| Cc1ccc(C(C)C)c(OCc2nnc(SCc3cn(C(=O)Nc4ccccc4C)nn3)o2)c1 [Compound 17, 4-((5-((2-isopropyl-5-methylphenoxy)methyl)-1,3,4-oxadiazol-2-ylthio)methyl)-N-o-tolyl-1H-1,2,3-triazole-1-carboxamide] | 9.39 | 17.3 | 39.1 | 12 ± 0.32 | 12 | 12 ± 0.34 | 12 | 124 to 126 |  |  |  |  |  |
| Nc1nc2[nH]cc(CCc3ccc(C(=O)N[C@@H](CCC(=O)O)C(=O)O)cc3)c2c(=O)[nH]1 [Pemetrexed, reference compound] |  |  |  |  |  |  |  |  | 7.26 ± 1.1 |  |  |  |  |
| Cc1ccc(C(C)C)c(OCc2nnc(SCc3cn(-c4ccccc4)nn3)o2)c1 [Compound 6, 4-((5-((2-isopropyl-5-methylphenoxy)methyl)-1,3,4-oxadiazol-2-ylthio)methyl)-1-phenyl-1H-1,2,3-triazole] | 22.5 | 36.5 | 41.6 | 14 ± 0.38 | 14 | 10 ± 0.40 | 10 | 88 to 90 |  |  |  |  |  |
| Cc1ccc(C(C)C)c(OCc2nnc(SCc3cn(-c4ccccc4O)nn3)o2)c1 [Compound 9, 2-(4-((5-((2-isopropyl-5-methylphenoxy)methyl)-1,3,4-oxadiazol-2-ylthio)methyl)-1H-1,2,3-triazol-1-yl)phenol] | 1.1 | 2.6 | 1.4 | 12 ± 0.36 | 12 | 12 ± 0.34 | 12 | 86 to 88 | 1.95 ± 0.9 | 17 | 20 | 10 ± 0.032 | 10 |
| COc1ccccc1-n1cc(CSc2nnc(COc3cc(C)ccc3C(C)C)o2)nn1 [Compound 7, 4-((5-((2-isopropyl-5-methylphenoxy)methyl)-1,3,4-oxadiazol-2-ylthio)methyl)-1-(2-methoxyphenyl)-1H-1,2,3-triazole] | 2.4 | 3.1 | 1.8 | 12 ± 0.34 | 12 | 12 ± 0.34 | 12 | 81 to 83 | 3.52 ± 1.2 |  | 16 |  |  |
| C#CCSc1nnc(COc2cc(C)ccc2C(C)C)o1 [Compound 5, 2-((2-isopropyl-5-methylphenoxy)methyl)-5-(prop-2-ynylthio)-1,3,4-oxadiazole] |  |  |  | 12 ± 0.32 | 12 | 9 ± 0.30 | 9 | 58 to 60 |  |  |  | 10 ± 0.32 | 10 |
| Cc1ccc(C(C)C)c(OCc2nnc(SCc3cn(-c4ccc(F)cc4F)nn3)o2)c1 [Compound 16, 4-((5-((2-isopropyl-5-methylphenoxy)methyl)-1,3,4-oxadiazol-2-ylthio)methyl)-1-(2,4-diflorophenyl)-1H-1,2,3-triazole] | 34.5 | 56.2 | 58.3 | 14 ± 0.34 | 14 | 15±0.38 | 15 | 130 to 132 |  |  |  |  |  |
| OC(Cn1cncn1)(Cn1cncn1)c1ccc(F)cc1F [Fluconazole, reference compound] |  |  |  |  |  |  |  |  |  |  |  |  | 16 ± 0.6 |
| Cc1ccc(C(C)C)c(OCc2nnc(SCc3cn(-c4ccccc4Cl)nn3)o2)c1 [Compound 10, 4-((5-((2-isopropyl-5-methylphenoxy)methyl)-1,3,4-oxadiazol-2-ylthio)methyl)-1-(2-chlorophenyl)-1H-1,2,3-triazole] | 1.3 | 3.8 | 2.5 |  |  |  |  | 90 to 92 | 2.18 ± 1.7 | 15 |  |  |  |
| Cc1ccc(C(C)C)c(OCc2nnc(SCc3cn(-c4cccc(Cl)c4)nn3)o2)c1 [Compound 11, 4-((5-((2-isopropyl-5-methylphenoxy)methyl)-1,3,4-oxadiazol-2-ylthio)methyl)-1-(3-chlorophenyl)-1H-1,2,3-triazole] | 4.9 | 16.3 | 18.6 |  |  |  |  | 92 to 94 | 4.24 ± 0.8 |  |  |  |  |
| Cc1ccc(C(C)C)c(OCc2nnc(SCc3cn(-c4cccc(Br)c4)nn3)o2)c1 [Compound 14, 4-((5-((2-isopropyl-5-methylphenoxy)methyl)-1,3,4-oxadiazol-2-ylthio)methyl)-1-(3-bromophenyl)-1H-1,2,3-triazole] | 41.8 | 32.8 | 23.7 | 9 ± 0.32 | 9 |  |  | 72 to 74 |  |  |  |  |  |
| CO[C@@H]1[C@@H](OC(N)=O)[C@@H](O)[C@H](Oc2ccc3c(O)c(NC(=O)c4ccc(O)c(CC=C(C)C)c4)c(=O)oc3c2C)OC1(C)C [Novobiocin, reference compound] |  |  |  |  |  |  | 10 ± 0.24 |  |  |  |  |  |  |
| Cc1ccc(C(C)C)c(OCc2nnc(SCc3cn(-c4ccc(F)cc4)nn3)o2)c1 [Compound 15, 4-((5-((2-isopropyl-5-methylphenoxy)methyl)-1,3,4-oxadiazol-2-ylthio)methyl)-1-(4-florophenyl)-1H-1,2,3-triazole] | 23.2 | 31.4 | 49.2 |  |  |  |  | 118 to 120 |  |  |  |  |  |
| Cc1ccc(C(C)C)c(OCc2nnc(SCc3cn(-c4ccc(Cl)cc4Cl)nn3)o2)c1 [Compound 12, 4-((5-((2-isopropyl-5-methylphenoxy)methyl)-1,3,4-oxadiazol-2-ylthio)methyl)-1-(2,4-dichlorophenyl)-1H-1,2,3-triazole] | 59.4 | 47.3 | 40.6 | 10 ± 0.38 | 10 |  |  | 84 to 86 |  |  |  | 12 ± 0.036 | 12 |
| Cc1ccc(C(C)C)c(OCc2nnc(S(=O)(=O)Cc3cn(-c4cccc(Br)c4)nn3)o2)c1 [Compound 18, 4-((5-((2-isopropyl-5-methylphenoxy)methyl)-1,3,4-oxadiazol-2-ylsulfonyl)methyl)-1-(3-bromophenyl)-1H-1,2,3-triazole] | 98.2 | 118 | 95.7 |  |  |  |  | 98 to 100 |  |  |  |  |  |
| Cc1ccc(C(C)C)c(OCc2nnc(SCc3cn(-c4cccc(C(=O)O)c4)nn3)o2)c1 [Compound 8, 3-(4-((5-((2-isopropyl-5-methylphenoxy)methyl)-1,3,4-oxadiazol-2-ylthio)methyl)-1H-1,2,3-triazol-1-yl)benzoic acid] | 3.9 | 5.8 | 5.3 |  |  | 10 ± 0.40 | 10 | 166 to 168 | 3.98 ± 1.1 |  |  |  |  |
| COc1cccc2c1C(=O)c1c(O)c3c(c(O)c1C2=O)C[C@@](O)(C(=O)CO)C[C@@H]3O[C@H]1C[C@H](N)[C@H](O)[C@H](C)O1 [Dox, doxorubicin, reference compound] | 1.2 | 2.5 | 1.8 |  |  |  |  |  |  |  |  |  |  |
| O=c1[nH]cc(F)c(=O)[nH]1 [Compound 5-FU, 5-fluorouracil, reference compound] | 18.7 | 30.7 | 28.7 |  |  |  |  |  |  |  |  |  |  |
| Cc1ccc(C(C)C)c(OCc2nnc(SCc3cn(-c4ccc(Br)cc4)nn3)o2)c1 [Compound 13, 4-((5-((2-isopropyl-5-methylphenoxy)methyl)-1,3,4-oxadiazol-2-ylthio)methyl)-1-(4-bromophenyl)-1H-1,2,3-triazole] | 65.3 | 78.7 | 69.4 | 11 ± 0.34 | 11 |  |  | 114 to 116 |  |  |  |  |  |
